Assay results: patent US20050137220A1 (Pharmacia Corporation, priority 2003, published 2005)
Where a name gives a salt, the structure may show the parent alone.

Each molecule was assayed on U937 cells (assay: U937 Cell TNFα Release Assay). Conditions: Homo sapiens, U-937, 4 h, LPS-stimulated differentiated U937 cells, TNFα by ELISA; mixture of stereoisomers implied unless otherwise noted; read-out: TNF Release Assay Avg. IC50.
Assay type: cell-based, human
For `CSc1ccc2[nH]c3c(c2c1)C1CCN(C1)C3C(=O)O` (centres unmarked) [Example 50], the IC50 was 15.3 µM.
`O=C(O)C1c2[nH]c3ccc(O)cc3c2C2CCN1C2` (centres unmarked) [Example 2, 7-hydroxy-3,4,5,10-tetrahydro-1H-2,5-methanoazepino[3,4-b]indole-1-carboxylic acid hydrochloride] gave an IC50 of 42.6 µM.

Same assay, conditions: Homo sapiens, U-937, 4 h, read-out: TNF Release Assay Avg. IC50, LPS-stimulated differentiated U937 cells, TNFα by ELISA; mixture of stereoisomers implied unless otherwise noted
Molecule `COC(=O)C1c2[nH]c3ccc(OC)cc3c2CCN1C` (stereo not drawn) [Example 149, methyl 6-methoxy-2-methyl-2,3,4,9-tetrahydro-1H-beta-carboline-1-carboxylate] has an IC50 of 8.25 µM.
With `NC(=O)c1ccc2[nH]c3c(c2c1)CCNC3C(=O)O` (stereo not drawn) [Example 88, 6-(aminocarbonyl)-2,3,4,9-tetrahydro-1H-beta-carboline-1-carboxylic acid trifluoroacetate hydrate] the IC50 was greater than 100 µM.
`O=C(O)C1NCCc2c1[nH]c1ccc(OCc3ccccc3)cc21` (stereo not drawn) [Example 64, 6-(benzyloxy)-2,3,4,9-tetrahydro-1H-beta-carboline-1-carboxylic acid hydrochloride] gave an IC50 of 85.1 µM.
With `O=C(O)C1NCCc2c1[nH]c1ccc(F)cc21` (stereo not drawn) [Example 94, 6-fluoro-2,3,4,9-tetrahydro-1H-beta-carboline-1-carboxylic acid trifluoroacetate] the IC50 was greater than 100 µM.
In the case of `COc1ccc2[nH]c3c(c2c1)CCN[C@@H]3C(=O)O` [Example 67, (1S)-6-methoxy-2,3,4,9-tetrahydro-1H-beta-carboline-1-carboxylic acid], the IC50 is reported as greater than 100 µM.
`COc1ccc2[nH]c3c(c2c1)C(C)CNC3C(=O)O` (stereo not drawn) [Example 22, 6-methoxy-4-methyl-2,3,4,9-tetrahydro-1H-beta-carboline-1-carboxylic acid] was tested, and the IC50 was 92.2 µM.

Same assay, conditions: Homo sapiens, U-937, LPS-stimulated differentiated U937 cells, TNFα by ELISA; mixture of stereoisomers implied unless otherwise noted; read-out: TNF Release Assay Avg. IC50
Work on `COC(=O)C1c2[nH]c3ccc(OC)cc3c2C2CCN1C2` (centres unmarked) [Example 58, methyl 7-methoxy-3,4,5,10-tetrahydro-1H-2,5-methanoazepino[3,4-b]indole-1-carboxylate trifluoroacetate] yielded an IC50 of 16.3 µM.

Same assay, conditions: Homo sapiens, U-937, read-out: TNF Release Assay Avg. IC50, LPS-stimulated differentiated U937 cells, TNFα by ELISA; mixture of stereoisomers implied unless otherwise noted
Molecule `COC(=O)C1c2[nH]c3ccc(OCc4ccccc4)cc3c2C2CCN1C2` (centres unmarked) [Example 91, methyl 7-(benzyloxy)-3,4,5,10-tetrahydro-1H-2,5-methanoazepino[3,4-b]indole-1-carboxylate compound with trifluoroacetic acid (1:1)] has an IC50 of 24 µM.
`CCCCCCOC(=O)C1c2[nH]c3ccc(OC)cc3c2C2CCN1C2` (centres unmarked) [Example 93, hydrochloride] was tested, and the IC50 was 9.65 µM.
With `COc1ccc2[nH]c3c(c2c1)C1CCN(C1)C3C(=O)OCC(C)(C)C` (centres unmarked) [Example 84, hydrochloride] the IC50 was 41 µM.
`COc1ccc2[nH]c3c(c2c1)C1CCN(C1)C3C(=O)OCCSC` (centres unmarked) [Example 32, hydrochloride] was tested, and the IC50 was 29.9 µM.
Molecule `COc1ccc2[nH]c3c(c2c1)C1CCN(C1)C3C(=O)OC1CCCCC1` (centres unmarked) [Example 105, hydrochloride] has an IC50 greater than 100 µM.

Same assay, conditions: read-out: TNF Release Assay Avg. IC50; LPS-stimulated differentiated U937 cells, TNFα by ELISA; mixture of stereoisomers implied unless otherwise noted; hydrochloride
Work on `COCCOC(=O)C1c2[nH]c3ccc(OC)cc3c2C2CCN1C2` (centres unmarked) [Example 35, hydrochloride] yielded an IC50 of 93.2 µM.

Same assay, conditions: read-out: TNF Release Assay Avg. IC50; LPS-stimulated differentiated U937 cells, TNFα by ELISA; mixture of stereoisomers implied unless otherwise noted; trifluoroacetate
Molecule `CCCOC(=O)C1c2[nH]c3ccc(OC)cc3c2C2CCN1C2` (centres unmarked) [Example 61, propyl 7-methoxy-3,4,5,10-tetrahydro-1H-2,5-methanoazepino[3,4-b]indole-1-carboxylate trifluoroacetate] has an IC50 of 0.879 µM.

Each molecule was assayed against MK-2 (Homo sapiens, UniProt P49137) (assay: Determination of MK-2 IC50 (phosphorylation of HSP-peptide, anion exchange resin capture assay)). Conditions: additional values are replicate IC50 experiments; mixture of stereoisomers implied unless otherwise noted; read-out: MK-2 Avg. IC50.
Sequence of MK-2 (P49137 whole entry, species assumed): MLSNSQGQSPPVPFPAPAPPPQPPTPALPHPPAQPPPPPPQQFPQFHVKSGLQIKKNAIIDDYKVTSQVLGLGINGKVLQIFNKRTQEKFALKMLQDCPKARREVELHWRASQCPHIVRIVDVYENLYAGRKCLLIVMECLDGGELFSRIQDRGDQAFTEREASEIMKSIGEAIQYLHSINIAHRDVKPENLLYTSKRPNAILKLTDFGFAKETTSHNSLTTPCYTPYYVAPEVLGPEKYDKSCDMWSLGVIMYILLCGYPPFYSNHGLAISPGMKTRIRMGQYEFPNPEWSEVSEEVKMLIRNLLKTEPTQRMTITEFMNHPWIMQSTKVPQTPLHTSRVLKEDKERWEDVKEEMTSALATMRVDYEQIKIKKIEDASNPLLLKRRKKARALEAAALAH
Assay type: biochemical
With `O=C(O)C1NCCc2c1[nH]c1ccc(OCc3ccc(C(F)(F)F)cc3)cc21` (stereo not drawn) [Example 138, 6-{[4-(trifluoromethyl)benzyl]oxy}-2,3,4,9-tetrahydro-1H-beta-carboline-1-carboxylic acid hydrochloride hydrate] the IC50 was 115 µM.
With `O=C(O)C1NCCc2c1[nH]c1ccc(OCc3ccccc3Cl)cc21` (stereo not drawn) [Example 196, 6-[(2-chlorobenzyl)oxy]-2,3,4,9-tetrahydro-1H-beta-carboline-1-carboxylic acid hydrochloride] the IC50 was greater than 200 µM.
`COC(=O)C1c2[nH]c3ccc(OC)cc3c2CCN1C(C)C` (stereo not drawn) [Example 199, methyl 2-isopropyl-6-methoxy-2,3,4,9-tetrahydro-1H-beta-carboline-1-carboxylate] was tested, and the IC50 was greater than 200 µM.
Work on `O=C(O)C1NCCc2c1[nH]c1ccc(OCCc3ccccc3)cc21` (stereo not drawn) [Example 87, 6-(2-phenylethoxy)-2,3,4,9-tetrahydro-1H-beta-carboline-1-carboxylic acid hydrochloride] yielded an IC50 of 27.9 µM.
`COC1=C(C#N)Cc2c([nH]c3ccc(OC)cc23)C(=O)N1` [Example 269, 3,7-dimethoxy-1-oxo-1,2,5,10-tetrahydroazepino[3,4-b]indole-4-carbonitrile] gave an IC50 greater than 200 µM.
`C=CCN1CCc2c([nH]c3ccc(OC)cc23)C1C(=O)OC` (stereo not drawn) [Example 225, methyl 2-allyl-6-methoxy-2,3,4,9-tetrahydro-1H-beta-carboline-1-carboxylate] gave an IC50 greater than 200 µM.
For `COc1ccc2[nH]c3c(c2c1)CCNC3C(N)=O` (stereo not drawn) [Example 220, 6-methoxy-2,3,4,9-tetrahydro-1H-beta-carboline-1-carboxamide], the IC50 was greater than 200 µM.
Work on `COc1ccc2[nH]c3c(c2c1)CCNC3C(=O)NCC(=O)O` (stereo not drawn) [Example 229, N-[(6-methoxy-2,3,4,9-tetrahydro-1H-beta-carbolin-1-yl)carbonyl]glycine hydrochloride hydrate] yielded an IC50 greater than 200 µM.
`O=C(O)C1(Cc2ccc3c(c2)OCO3)NCCc2c1[nH]c1ccccc21` (stereo not drawn) [Example 204, 1-[(benzodioxolan-5-yl)methyl]-2,3,4,9-tetrahydro-1H-beta-carboline-1-carboxylic acid] gave an IC50 greater than 200 µM.
For `CN1CCc2c(n(-c3ccccc3)c3ccccc23)C1=O` [Example 257, 2-methyl-9-phenyl-2,3,4,9-tetrahydro-1H-beta-carbolin-1-one], the IC50 was greater than 200 µM.
`COC(=O)C1(Cc2ccc(Cl)cc2)c2[nH]c3ccc(O)cc3c2CCN1C` (stereo not drawn) [Example 173, methyl 1-[4-chlorobenzyl)-6-hydroxy-2-methyl-2,3,4,9-tetrahydro-1H-beta-carboline-1-carboxylate] was tested, and the IC50 was greater than 200 µM.
`O=C(O)C1NCCc2c1[nH]c1ccc(OCc3ccc(Cl)cc3)cc21` (stereo not drawn) [Example 136, 6-[(4-chlorobenzyl)oxy]-2,3,4,9-tetrahydro-1H-beta-carboline-1-carboxylic acid] was tested, and the IC50 was 112 µM.
For `COC(=O)C1(CCl)NCCc2c1[nH]c1ccccc21` (stereo not drawn) [Example 164, methyl 1-(chloromethyl)-2,3,4,9-tetrahydro-1H-beta-carboline-1-carboxylate], the IC50 was greater than 200 µM.
For `Cc1ccc2[nH]c3c(c2c1)CCNC3=O` [Example 254, 1h-Pyrido[3,4-B]Indol-1-One,2,3,4,9-Tetrahydro-6-Methyl-], the IC50 was greater than 200 µM.
`COc1cc2[nH]c3c(c2cc1OC)CCCC3=NO` [Example 131, 6,7-dimethoxy-2,3,4,9-tetrahydro-1H-carbazol-1-one oxime] was tested, and the IC50 was 100 µM.
`COc1ccc(Oc2ccc3[nH]c4c(c3c2)CCC/C4=N\O)cc1` [Example 144, 6-(4-methoxyphenoxy)-2,3,4,9-tetrahydro-1H-carbazol-1-one oxime] gave an IC50 of 130 µM.
Molecule `COc1ccc2[nH]c3c(c2c1)CCNC3Cc1nnn[nH]1` (stereo not drawn) [Example 166, 6-methoxy-1-(1H-tetraazol-5-ylmethyl)-2,3,49-tetrahydro-1H-beta-carboline hydrochloride hydrate] has an IC50 greater than 200 µM.
Work on `O=C(O)COc1ccc2[nH]c3c(c2c1)CCNC3C(=O)O` (stereo not drawn) [Example 98, 6-(carboxymethoxy)-2,3,4,9-tetrahydro-1H-beta-carbolin-1-carboxylic acid] yielded an IC50 of 35.5 µM.
`O=C1NCCc2c1[nH]c1ccc(O)cc21` [Example 108, 6-hydroxy-2,3,4,9-tetrahydro-1H-beta-carbolin-1-one] gave an IC50 of 48.9 µM.
